Results taken from paper PMC11822212, “High-throughput screening identifies Aurora kinase B as a critical therapeutic target for Merkel cell carcinoma” (Nature Communications, 2025).
Like-named read-outs stand apart in the source and are kept apart here.

Key:
MCC13 cells (VN-MCC) = test: qHTS cell viability (CellTiter-Glo, 72 h; primary and follow-up small molecule screen); assay type: cell-based, human
MCC26 cells (VN-MCC) = test: as above; assay type: cell-based, human
UISO cells (VN-MCC) = test: as above; assay type: cell-based, human
WAGA cells (VP-MCC) = test: as above; assay type: cell-based, human
MKL-1 cells (VP-MCC) = test: as above; assay type: cell-based, human
MKL-2 cells (VP-MCC) = test: as above; assay type: cell-based, human
HACAT cells = test: qHTS cell viability (CellTiter-Glo, 72 h; primary screen), control cell line; assay type: cell-based, human
HEK293T cells = test: as above; assay type: cell-based, human
NIH-3T3 cells = test: as above; assay type: cell-based, mouse
CRL-7250 cells = test: as above; assay type: cell-based
[1] = system: MCC cell lines (WAGA, MKL-1, MKL-2, MCC13, MCC26, UISO); test: qHTS cell viability, all six MCC cell lines as a group (mean AUC, MCC.avg); assay type: cell-based, human
[2] = system: VP-MCC cell lines (WAGA, MKL-1, MKL-2); test: qHTS cell viability, VP-MCC cell lines as a group (mean AUC, VP.MCC.avg); assay type: cell-based, human
[3] = system: VN-MCC cell lines (MCC13, MCC26, UISO); test: qHTS cell viability, VN-MCC cell lines as a group (mean AUC, VN.MCC.avg); assay type: cell-based, human
[4] = system: control cell lines (HACAT, HEK293T, CRL-7250, NIH-3T3); test: qHTS cell viability, control cell lines as a group (mean AUC, Control.avg); assay type: cell-based
[5] = system: six MCC cell lines and four control cell lines; test: qHTS cell viability, all 10 cell lines screened; assay type: cell-based
[6] = NPC library, qHTS dose-response AUC, MCC13
[7] = NPC library, qHTS dose-response AUC, UISO
[8] = NPC library, qHTS dose-response AUC, WAGA
[9] = NPC library, qHTS dose-response AUC, MKL1
[10] = NPC library, qHTS dose-response AUC, MKL2
[11] = NPC library, qHTS dose-response AUC, HACAT control
[12] = NPC library, qHTS dose-response AUC, NIH3T3 control
[13] = NPC library, qHTS dose-response AUC, CRL7250 control
[14] = NPC library, mean AUC of six MCC cell lines
[15] = NPC library, mean AUC of VP-MCC cell lines
[16] = NPC library, therapeutic window: Control avg AUC minus VP-MCC avg AUC
[17] = NPC library, mean AUC of VN-MCC cell lines
[18] = NPC library, therapeutic window: Control avg AUC minus VN-MCC avg AUC
[19] = NPC library, mean AUC of control cell lines
[20] = NPC library, therapeutic window: Control avg AUC minus MCC avg AUC
[21] = MIPE library, 11-point DRC, sheet S2E
[22] = MIPE library, 11-point DRC, control cell line, sheet S2E

CCCCC1C(=O)N(c2ccccc2)N(c2ccc(O)cc2)C1=O (centres unmarked) [Oxyphenbutazone]
MCC13_AUC (MCC13 cells (VN-MCC); [6]): 405.464
MCC26_AUC (MCC26 cells (VN-MCC); NPC library; qHTS dose-response AUC, MCC26): 450.163
UISO_AUC (UISO cells (VN-MCC); [7]): 403.541
WAGA_AUC (WAGA cells (VP-MCC); [8]): 370.924
MKL1_AUC (MKL-1 cells (VP-MCC); [9]): 340.624
MKL2_AUC (MKL-2 cells (VP-MCC); [10]): 317.862
HACAT_AUC (HACAT cells; [11]): 428.222
HEK293T_AUC (HEK293T cells; NPC library; qHTS dose-response AUC, HEK293T control): 361.816
NIH3T3_AUC (NIH-3T3 cells; [12]): 433.353
CRL7250_AUC (CRL-7250 cells; [13]): 449.026
MCC_Avg_AUC [1, 14]: 381.43
VP-MCC_Avg_AUC [2, 15]: 343.137
Control-VP-MCC [2, 16]: 74.9673
VN-MCC_Avg_AUC [3, 17]: 419.723
Control-VN-MCC [3, 18]: -1.619
Control_Avg_AUC [4, 19]: 418.104
Control-MCC [5, 20]: 36.6743

CC[C@H]1C[C@@H]2C[C@H]3c4[nH]c5ccc(OC)cc5c4CCN(C2)[C@@H]13.Cl [Ibogaine hydrochloride]
MCC13_AUC (MCC13 cells (VN-MCC)): 435.55
MCC26_AUC (MCC26 cells (VN-MCC)): 419.663
UISO_AUC (UISO cells (VN-MCC)): 418.883
WAGA_AUC (WAGA cells (VP-MCC)): 409.341
MKL1_AUC (MKL-1 cells (VP-MCC)): 439.962
MKL2_AUC (MKL-2 cells (VP-MCC)): 442.315
HACAT_AUC (HACAT cells): 487.75
HEK293T_AUC (HEK293T cells): 455.404
NIH3T3_AUC (NIH-3T3 cells): 484.099
CRL7250_AUC (CRL-7250 cells): 490.013
MCC_Avg_AUC [1]: 427.619
Control-VP-MCC [2]: 48.777
VP-MCC_Avg_AUC [2]: 430.539
Control-VN-MCC [3]: 54.6174
VN-MCC_Avg_AUC [3]: 424.699
Control_Avg_AUC [4]: 479.316
Control-MCC [5]: 51.6972

COc1c(C)c2c(c(O)c1C/C=C(\C)CCC(=O)OCCN1CCOCC1)C(=O)OC2 [Mycophenolate mofetil]
MCC13_AUC (MCC13 cells (VN-MCC); [6]): 354.203
Area under the dose-response curve (AUC) MCC13 Replicate 1 (MCC13 cells (VN-MCC); follow-up screen, MCC13, replicate 1): 377.4
Area under the dose-response curve (AUC) MCC13 Replicate 2 (MCC13 cells (VN-MCC); follow-up screen, MCC13, replicate 2): 383.7
Area under the dose-response curve (AUC) MCC13 Replicate 3 (MCC13 cells (VN-MCC); follow-up screen, MCC13, replicate 3): 412.3
MCC26_AUC (MCC26 cells (VN-MCC); NPC library, qHTS dose-response AUC, MCC26): 393.051
Area under the dose-response curve (AUC) MCC26 Replicate 1 (MCC26 cells (VN-MCC); follow-up screen; MCC26; replicate 1): 381.3
Area under the dose-response curve (AUC) MCC26 Replicate 2 (MCC26 cells (VN-MCC); follow-up screen; MCC26; replicate 2): 385.2
Area under the dose-response curve (AUC) MCC26 Replicate 3 (MCC26 cells (VN-MCC); follow-up screen; MCC26; replicate 3): 373.0
UISO_AUC (UISO cells (VN-MCC); [7]): 380.141
Area under the dose-response curve (AUC) UISO Replicate 1 (UISO cells (VN-MCC); follow-up screen, UISO, replicate 1): 348.1
Area under the dose-response curve (AUC) UISO Replicate 2 (UISO cells (VN-MCC); follow-up screen, UISO, replicate 2): 378.4
Area under the dose-response curve (AUC) UISO Replicate 3 (UISO cells (VN-MCC); follow-up screen, UISO, replicate 3): 389.6
WAGA_AUC (WAGA cells (VP-MCC); [8]): 157.003
Area under the dose-response curve (AUC) WAGA Replicate 1 (WAGA cells (VP-MCC); follow-up screen, WAGA, replicate 1): 322.6
Area under the dose-response curve (AUC) WAGA Replicate 2 (WAGA cells (VP-MCC); follow-up screen, WAGA, replicate 2): 354.0
Area under the dose-response curve (AUC) WAGA Replicate 3 (WAGA cells (VP-MCC); follow-up screen, WAGA, replicate 3): 383.1
MKL1_AUC (MKL-1 cells (VP-MCC); [9]): 148.352
Area under the dose-response curve (AUC) MKL-1 Replicate 1 (MKL-1 cells (VP-MCC); follow-up screen, MKL-1, replicate 1): 342.8
Area under the dose-response curve (AUC) MKL-1 Replicate 2 (MKL-1 cells (VP-MCC); follow-up screen, MKL-1, replicate 2): 365.2
Area under the dose-response curve (AUC) MKL-1 Replicate 3 (MKL-1 cells (VP-MCC); follow-up screen, MKL-1, replicate 3): 378.9
MKL2_AUC (MKL-2 cells (VP-MCC); [10]): 105.914
Area under the dose-response curve (AUC) MKL-2 Replicate 1 (MKL-2 cells (VP-MCC); follow-up screen, MKL-2, replicate 1): 325.5
Area under the dose-response curve (AUC) MKL-2 Replicate 2 (MKL-2 cells (VP-MCC); follow-up screen, MKL-2, replicate 2): 324.8
Area under the dose-response curve (AUC) MKL-2 Replicate 3 (MKL-2 cells (VP-MCC); follow-up screen, MKL-2, replicate 3): 367.3
HACAT_AUC (HACAT cells; [11]): 439.79
HEK293T_AUC (HEK293T cells; NPC library, qHTS dose-response AUC, HEK293T control): 332.795
NIH3T3_AUC (NIH-3T3 cells; [12]): 433.09
CRL7250_AUC (CRL-7250 cells; [13]): 396.679
MCC_Avg_AUC ([1]; NPC library, mean AUC of all 6 MCC cell lines): 256.444
MCC_Avg_AUC [1, 14]: 256.444
Control-VP-MCC ([2]; Control AUC minus VP-MCC AUC): 263.498
VP-MCC_Avg_AUC [2, 15]: 137.09
Control-VP-MCC [2, 16]: 263.498
Control-VN-MCC ([3]; Control AUC minus VN-MCC AUC): 24.7903
VN-MCC_Avg_AUC [3, 17]: 375.798
Control-VN-MCC [3, 18]: 24.7903
Control_Avg_AUC [4, 19]: 400.588
Control-MCC [5, 20]: 144.144

O=C(CCCCCCC(=O)Nc1ccccc1)NO [Suberoylanilide hydroxamic acid]
MCC13_AUC (MCC13 cells (VN-MCC); [21]): 429.995
MCC26_AUC (MCC26 cells (VN-MCC); [21]): 457.523
UISO_AUC (UISO cells (VN-MCC); [21]): 422.155
WAGA_AUC (WAGA cells (VP-MCC); [21]): 347.247
MKL1_AUC (MKL-1 cells (VP-MCC); [21]): 374.242
MKL2_AUC (MKL-2 cells (VP-MCC); [21]): 344.522
HACAT_AUC (HACAT cells; [22]): 451.394
HEK293T_AUC (HEK293T cells; [22]): 400.579
NIH3T3_AUC (NIH-3T3 cells; [22]): 416.277
CRL7250_AUC (CRL-7250 cells; [22]): 429.882
MCC_Avg_AUC ([1]; MIPE library, mean AUC of six MCC cell lines, sheet S2E): 395.947
Control-VP-MCC ([2]; MIPE library, Control AUC minus VP-MCC AUC (therapeutic window), sheet S2E): 69.1958
VP-MCC_Avg_AUC ([2]; MIPE library, mean AUC of VP-MCC cell lines, sheet S2E): 355.337
Control-VN-MCC ([3]; MIPE library, Control AUC minus VN-MCC AUC (therapeutic window), sheet S2E): -12.0249
VN-MCC_Avg_AUC ([3]; MIPE library, mean AUC of VN-MCC cell lines, sheet S2E): 436.558
Control_Avg_AUC ([4]; MIPE library, mean AUC of control cell lines, sheet S2E): 424.533
Control-MCC ([5]; MIPE library, Control AUC minus MCC AUC (therapeutic window), sheet S2E): 28.5854
